This is an account of results in article PMC8915830 (Proceedings of the National Academy of Sciences of the …, 2022).

The target in test [1] is T1, hGHSR1aWT (Homo sapiens, UniProt Q92847). The test is described as follows: iCa2+ in WT or Gαq/11 KO HEK293/S cells. Type of test: cell-based. The following applies: 10 μM ligand; versus WT cells.
Test [2] concerns the target T1, hGHSR1aWT. The test is described as follows: Gαq/11-dependent intracellular Ca2+ mobilization. Type of test: cell-based. The following applies: for activity of the pure/resynthesized molecule: screening aliquots contained oxidated impurities.

T1 sequence (Q92847 whole entry): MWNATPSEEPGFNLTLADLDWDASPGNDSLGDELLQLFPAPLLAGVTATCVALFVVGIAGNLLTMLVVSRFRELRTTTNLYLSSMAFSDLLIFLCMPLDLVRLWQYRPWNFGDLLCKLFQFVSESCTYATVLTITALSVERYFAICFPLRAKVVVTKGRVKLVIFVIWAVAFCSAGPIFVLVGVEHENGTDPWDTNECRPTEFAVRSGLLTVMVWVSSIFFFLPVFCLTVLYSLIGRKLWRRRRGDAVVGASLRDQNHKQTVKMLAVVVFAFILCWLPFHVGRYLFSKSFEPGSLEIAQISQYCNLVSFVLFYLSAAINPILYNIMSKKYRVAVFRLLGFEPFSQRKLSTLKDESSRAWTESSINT

With `C[C@@H](O)CNC(C)(C)CC(=O)N[C@@H]1CCc2ccccc2N(Cc2ccc(-c3ccccc3-c3nn[nH]n3)cc2)C1=O` [L585], the “ligand-induced iCa2+ in Gαq/11 KO cells” value at hGHSR1aWT [1] is reported as “abolished”. Regarding `Cc1nc2ccc(Oc3ccc(F)cc3)cc2c(=O)n1C[C@H]1CCCN(C(C)C)C1` [YIL781], the “inhibition of iCa2+ evoked by EC80 N8279, ghrelin or L585” value at hGHSR1aWT [2] (30 min antagonist pretreatment) is “competitively inhibited”. Take `COc1ccc(C2c3c(oc4ccc(Cl)cc4c3=O)C(=O)N2CCCN(C)C)cc1OC` (stereo not shown) [N6164]: the “activity of the pure/resynthesized molecule” value on hGHSR1aWT [2] is listed as “could not be confirmed”.

Regarding `CCOc1ccc(C2c3c(oc4ccc(C)cc4c3=O)C(=O)N2CCCN(C)C)cc1OC` (stereo not shown) [N1956], the “activity of the pure/resynthesized molecule” value at hGHSR1aWT [2] is listed as “could not be confirmed”.
